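Briefly, cells in 96-well plates were exposed to five compound concentrations for 48 h, and endpoints were estimated by linear interpolation. TGI denotes the concentration required for complete inhibition of growth.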

The values that follow come from PubChem BioAssay (NCI).

What all share (assay): DTP human tumour cell line panel, 48 h
For assay [1], the system named is HL-60(TB) leukemia.
In assay [2] the test system is NCI-H226 lung.
Assay [3] deals with SK-OV-3 ovarian.
Assay [4] concerns OVCAR-5 ovarian.
For assay [5], the system named is NCI-H23 lung.
For assay [6], the system named is SK-MEL-5 melanoma.
In assay [7] the test system is SNB-19 CNS.
For assay [8], the system named is HCT-116 colon.
The test system of assay [9] is MALME-3M melanoma.
The subject of assay [10] is HOP-62 NSCLC.
Assay [11] concerns HT29 colon.
Assay [12] deals with OVCAR-8 ovarian.
In assay [13] the test system is MCF7 breast.
Assay [14] has as its system CAKI-1 renal.
The subject of assay [15] is T-47D breast.
Assay [16] deals with RPMI-8226 leukemia.
In assay [17] the test system is UO-31 renal.
For assay [18], the system named is MDA-MB-435.
The subject of assay [19] is 786-0 renal.
In assay [20] the test system is HOP-92 NSCLC.

Take `CC(=O)O[C@@H]1O[Si](C(C)(C)C)(C(C)(C)C)[C@H](C)[C@H]1C`: the total growth inhibition concentration (TGI) in [1] is 44 µM; in [2] it was > 100 µM; in assay [3] it was > 100 µM; in assay [4], > 100 µM; in assay [5], > 100 µM; in [6], > 100 µM. Besides, the TGI was > 100 µM in [7]; > 100 µM in assay [8]; 90.1 µM in assay [9]; > 100 µM in [10]; 55.6 µM in [11]; > 100 µM in [12]. For the same molecule, the TGI in assay [13] is 83 µM; in [14], > 100 µM; in assay [15] it was > 100 µM; in [16] it was > 100 µM; in [17] it was > 100 µM; in assay [18] it was > 100 µM. Further, the TGI in [19] was > 100 µM.

With `COc1ccccc1NC(=S)Nc1cc(C)ccn1`, the concentration for total growth inhibition (TGI) in [1], in [2], in assay [3], in [4], in assay [6] and in [7] was > 100 µM each time. For the same molecule, the TGI in [8], in assay [9], in [10], in [11], in assay [12] and in assay [13] was > 100 µM in each case. Also, the TGI in assay [14], in assay [15], in assay [16], in assay [17], in assay [18] and in assay [19] was > 100 µM in each case.

With `COc1ccc(CNC(=O)[C@H](Cc2ccc(O)cn2)NC(C)=O)cc1`, the total growth inhibition concentration (TGI) in assay [1], in [2], in assay [3], in assay [4], in assay [5] and in [6] was > 100 µM each time. The TGI in assay [7], in [8], in assay [10], in assay [11], in assay [13] and in assay [14] was > 100 µM each time. In addition, the TGI in assay [15], in assay [16], in assay [17], in assay [18] and in [19] was > 100 µM each time.

As for `CC(=O)N=C1N(/C=C2\C(=O)Oc3ccccc3C2=O)C(=O)/C(=C/c2ccccc2Cl)N1C`, the TGI in assay [1], in [2], in assay [3], in assay [4], in [5] and in assay [6] was > 100 µM in each case. For the same molecule, the total growth inhibition concentration (TGI) in assay [7], in assay [8], in assay [9], in [10], in assay [11] and in assay [12] was > 100 µM in each case. For the same molecule, the TGI in [13], in assay [14], in assay [15], in assay [16], in assay [18] and in assay [19] was > 100 µM in each case.

Consider `CC(O[Si](c1ccccc1)(c1ccccc1)C(C)(C)C)[C@H](NC(=O)OC(C)(C)C)C(=O)O` (some centres not stated), for which the total growth inhibition concentration (TGI) is 59.8 µM in assay [1]; > 100 µM in [3]; > 100 µM in assay [4]; > 100 µM in assay [5]; 78.1 µM in assay [20]; 50.8 µM in [6]. Also, the TGI in assay [7], in [8], in [9], in assay [10], in assay [11] and in assay [12] was > 100 µM in each case. In addition, the concentration for total growth inhibition (TGI) in [13], in assay [14], in assay [15], in assay [16], in assay [17] and in assay [19] was > 100 µM throughout.

Consider `O=C(NNC(=S)NCc1ccccc1)C12CC3CC(CC(C3)C1)C2`, for which the total growth inhibition concentration (TGI) in assay [1] is 51.7 µM; in [2] it was > 100 µM; in assay [3], > 100 µM; in [4] it was > 100 µM; in [5], > 100 µM; in assay [7], > 100 µM. Also, the TGI in [8], in assay [9], in assay [10], in assay [11], in [12] and in assay [13] was > 100 µM in each case. The TGI in [15], in assay [16], in assay [17], in [18] and in assay [19] was > 100 µM throughout.

Take `Cc1ccc(C)n1-n1c(-c2ccccc2)n[nH]c1=O`: the TGI in [2], in [3], in [4], in [6], in assay [7] and in [8] was > 100 µM throughout. The concentration for total growth inhibition (TGI) in assay [9], in assay [10], in [11], in assay [12], in [13] and in [14] was > 100 µM in each case. The TGI in assay [15] was > 100 µM; in assay [16] it was > 100 µM; in assay [17], > 100 µM; in assay [18] it was 53.6 µM; in assay [19] it was > 100 µM.

On to `O=[N+]([O-])c1sc2ccc(Cl)cc2c1Nc1ccc(Cl)cc1`, for which the concentration for total growth inhibition (TGI) in [1], in assay [2], in [3], in [4], in [5] and in assay [6] was > 100 µM each time. Further, the TGI in assay [7], in [9], in [10], in assay [11], in assay [12] and in assay [13] was > 100 µM each time. The TGI in [15], in assay [16], in assay [17], in assay [18] and in assay [19] was > 100 µM in each case.

For the molecule `N#Cc1c(-c2ccccc2)c(C#N)c(=O)n(C2OC(CO)C(O)C(O)C2O)c1S` (configuration not stated), the TGI in assay [1], in assay [2], in [3], in [4], in [5] and in assay [6] was > 100 µM each time. Also, the concentration for total growth inhibition (TGI) in [7], in assay [9], in assay [10], in assay [11], in [12] and in assay [13] was > 100 µM each time. For the same molecule, the TGI in assay [14], in assay [15], in assay [16], in [17], in assay [18] and in assay [19] was > 100 µM each time.

Regarding `O=C(/C=C/c1ccc(O)c(O)c1)NCCc1ccc(-c2ccccc2)cc1`, the TGI in assay [1], in [3], in assay [4], in [5], in [6] and in assay [7] was > 100 µM throughout. The concentration for total growth inhibition (TGI) was > 100 µM in assay [8]; 53.9 µM in assay [9]; > 100 µM in assay [10]; > 100 µM in assay [11]; > 100 µM in assay [12]; > 100 µM in assay [13]. Further, the concentration for total growth inhibition (TGI) in assay [14], in assay [15], in assay [16], in assay [17] and in assay [19] was > 100 µM in each case.

`CCCCCCCCCc1c(O)c(O)c(CCCCCCCCC)c(CCCCCCCCC)c1CCCCCCCCC`: the TGI in [1] is 50 µM; in [2] it was > 100 µM; in assay [3] it was > 100 µM; in [4], > 100 µM; in assay [5], > 100 µM; in assay [6] it was > 100 µM. Moreover, the TGI in assay [7], in assay [8], in assay [9], in [10], in assay [11] and in assay [12] was > 100 µM throughout. The concentration for total growth inhibition (TGI) in [13], in [14], in assay [15], in assay [16], in [18] and in assay [19] was > 100 µM each time.

Turning to `CCOC(=O)NC(=S)c1ccc(O)c2ccccc12`, the total growth inhibition concentration (TGI) in assay [1] is 39.9 µM; in [3], > 100 µM; in assay [4] it was > 100 µM; in [5], > 100 µM; in assay [6], > 100 µM; in assay [7], > 100 µM. The concentration for total growth inhibition (TGI) in assay [8], in assay [9], in assay [10], in [11], in assay [12] and in assay [13] was > 100 µM in each case. Also, the TGI in assay [14], in [15], in assay [16], in assay [17], in assay [18] and in [19] was > 100 µM in each case.

As a reminder, the TGI is the concentration giving total growth inhibition. Read a high TGI as less potent growth arrest.
